Data as given in patent US8895033B2, “Sustained release formulations using non-aqueous carriers” (Amylin Pharmaceuticals, LLC, priority 2008, dated 2014).

Assay: Fraction of drug in microparticles and in MCT oil carrier after storage
Assay type: physicochemical
Excerpt: Mixtures ranged from 2% to 10% w/w of the active pharmaceutical ingredient. The mixed powder was transferred to an extruder where the temperature was adjusted according to the chosen polymer. Some polymers needed higher temperatures to produce a melt with good flow properties. The extruder contained twin screws that moved clockwise to produce efficient mixing. The material was extruded through a 1.5 mm orifice, collected, cooled at room temperature, and cut into short strands about 1-2 inches long. These strands were then fed into a 12-tooth rotor mill, followed by a sieving step to produce microparticles of about 20 to 100 microns. The microparticles were collected and stored at 5° C. until further use.
Experimental samples were prepared by dispersing about 50 mg of the microparticles into 0.75 mL of a MCT oil carrier. The samples were stored at 5° C. and 25° C. for two days, two weeks, or one month, at which times representative samples were tested. The fraction of drug that remained in the microparticles and the fraction of drug that partitioned into the MCT oil carrier were determined. Briefly, the samples were centrifuged to separate the microparticles from the MCT oil carrier. Each portion was treated independently to determine the amount of drug it contained. Results are reported on the basis of the percent residing in each independent portion.

[1] = PLGA copolymer, 1 Month Storage at 5° C.
[2] = PLGA copolymer, 1 Month Storage at 25° C.
[3] = PLGA copolymer, 2 Days Storage at 5° C.
[4] = PLGA copolymer, 2 Days Storage at 25° C.
[5] = polycaprolactone/PLGA copolymer, Two Weeks Storage, 5° C.
[6] = polycaprolactone/PLGA copolymer, Two Weeks Storage, 25° C.

| Compound | percent of drug in MCT Carrier [1] [%] | percent of drug in Microparticles [1] [%] | percent of drug in MCT Carrier [2] [%] | percent of drug in Microparticles [2] [%] | percent of drug in MCT Carrier [3] [%] | percent of drug in Microparticles [3] [%] | percent of drug in MCT Carrier [4] [%] | percent of drug in Microparticles [4] [%] | migration into the MCT carrier oil (from microparticles on storage) | percent of drug in MCT Carrier [5] [%] | percent of drug in Microparticles [5] [%] | percent of drug in MCT Carrier [6] [%] | percent of drug in Microparticles [6] [%] |
| --- | --- | --- | --- | --- | --- | --- | --- | --- | --- | --- | --- | --- | --- |
| insulin | 0.5 | 99.5 | 0.7 | – | – | – | – | – | – | – | – | – | – |
| O=C([O-])c1ccccc1O.[Na+] [sodium salicylate] | 1.3 | 98.7 | 1.5 | 98.5 | 0.5 | 99.5 | 2.3 | 97.7 | – | – | – | – | – |
| O=C(O)c1ccccc1O [salicylic acid] | 0.1 | 99.9 | 0.2 | 99.8 | 1.1 | 98.9 | 0.9 | 99.1 | did not migrate | – | – | – | – |
| bovine serum albumin | 0.0 | 100.0 | 0.0 | 100.0 | 0.0 | 100.0 | 0.0 | 100.0 | – | – | – | – | – |
| metreleptin | 0.0 | 100.0 | 0.0 | 100.0 | 0.0 | 100.0 | 0.0 | 100.0 | – | – | – | – | – |
| CC[C@H](C)[C@H](NC(=O)[C@@H]1CCCN1C(=O)CNC(=O)[C@H](Cc1ccccc1)NC(=O)[C@H](CC(N)=O)NC(=O)[C@H](CC(N)=O)NC(=O)[C@H](CO)NC(=O)[C@H](CO)NC(=O)[C@H](Cc1c[nH]cn1)NC(=O)[C@@H](NC(=O)[C@H](CC(C)C)NC(=O)[C@H](Cc1ccccc1)NC(=O)[C@H](CC(N)=O)NC(=O)[C@H](C)NC(=O)[C@H](CC(C)C)NC(=O)[C@H](CCCNC(=N)N)NC(=O)[C@H](CCC(N)=O)NC(=O)[C@@H](NC(=O)[C@H](C)NC(=O)[C@@H]1CSSC[C@H](NC(=O)[C@@H](N)CCCCN)C(=O)N[C@@H](CC(N)=O)C(=O)N[C@@H]([C@@H](C)O)C(=O)N[C@@H](C)C(=O)N[C@@H]([C@@H](C)O)C(=O)N1)[C@@H](C)O)C(C)C)C(=O)N[C@@H](CC(C)C)C(=O)N1CCC[C@H]1C(=O)N1CCC[C@H]1C(=O)N[C@H](C(=O)N[C@@H](CC(N)=O)C(=O)N[C@H](C(=O)NCC(=O)N[C@@H](CO)C(=O)N[C@@H](CC(N)=O)C(=O)N[C@H](C(=O)N[C@@H](Cc1ccc(O)cc1)C(N)=O)[C@@H](C)O)C(C)C)[C@@H](C)O [pramlintide] | 0.3 | 99.7 | 0.0 | 100.0 | 0.0 | 100.0 | 0.0 | 100.0 | – | 0.0 | 100.0 | 0.0 | 100.0 |
| davalintide | 0.6 | 99.4 | 0.0 | 100.0 | 0.2 | 99.8 | 0.0 | 100.0 | – | – | – | – | – |
